Biological target: T1, bovine-milk-derived xanthine oxidase (XOD) (Bos taurus, UniProt P80457)
T1 construct: from tissue; host or cells: bovine milk
Assay: Xanthine oxidase inhibitory activity (inhibition of uricogenesis from xanthine, absorbance at 292 nm)
Type: biochemical
Conditions: xanthine 100 μM, XOD 10 mU/ml, 50 mM phosphate buffer pH 7.4, 15 minutes, room temperature
Description: Test Example: Xanthine oxidase inhibitory activity
Xanthine (100 μM), bovine-milk-derived xanthine oxidase (XOD) (10 mU/ml), and a test compound were mixed in 50 mM phosphate buffer (pH 7.4), and the mixture was incubated for 15 minutes at room temperature. Transformation of xanthine into uric acid was measured as the change in absorbance (O.D.) at 292 nm, to thereby investigate the inhibitory effect of the test compound against uricogenesis.
The inhibition ratio against uricogenesis was calculated from the following equation, and a dose-response curve of each compound was obtained.
Inhibition ratio against uricogenesis (%)=100-[(D-DB)/T]×100
T: O.D. of a solution of "xanthine+XOD"
D: O.D. of a solution of "test compound+xanthine+XOD"
DB: O.D. of a solution of "test compound+XOD"

T1 sequence (P80457 whole entry): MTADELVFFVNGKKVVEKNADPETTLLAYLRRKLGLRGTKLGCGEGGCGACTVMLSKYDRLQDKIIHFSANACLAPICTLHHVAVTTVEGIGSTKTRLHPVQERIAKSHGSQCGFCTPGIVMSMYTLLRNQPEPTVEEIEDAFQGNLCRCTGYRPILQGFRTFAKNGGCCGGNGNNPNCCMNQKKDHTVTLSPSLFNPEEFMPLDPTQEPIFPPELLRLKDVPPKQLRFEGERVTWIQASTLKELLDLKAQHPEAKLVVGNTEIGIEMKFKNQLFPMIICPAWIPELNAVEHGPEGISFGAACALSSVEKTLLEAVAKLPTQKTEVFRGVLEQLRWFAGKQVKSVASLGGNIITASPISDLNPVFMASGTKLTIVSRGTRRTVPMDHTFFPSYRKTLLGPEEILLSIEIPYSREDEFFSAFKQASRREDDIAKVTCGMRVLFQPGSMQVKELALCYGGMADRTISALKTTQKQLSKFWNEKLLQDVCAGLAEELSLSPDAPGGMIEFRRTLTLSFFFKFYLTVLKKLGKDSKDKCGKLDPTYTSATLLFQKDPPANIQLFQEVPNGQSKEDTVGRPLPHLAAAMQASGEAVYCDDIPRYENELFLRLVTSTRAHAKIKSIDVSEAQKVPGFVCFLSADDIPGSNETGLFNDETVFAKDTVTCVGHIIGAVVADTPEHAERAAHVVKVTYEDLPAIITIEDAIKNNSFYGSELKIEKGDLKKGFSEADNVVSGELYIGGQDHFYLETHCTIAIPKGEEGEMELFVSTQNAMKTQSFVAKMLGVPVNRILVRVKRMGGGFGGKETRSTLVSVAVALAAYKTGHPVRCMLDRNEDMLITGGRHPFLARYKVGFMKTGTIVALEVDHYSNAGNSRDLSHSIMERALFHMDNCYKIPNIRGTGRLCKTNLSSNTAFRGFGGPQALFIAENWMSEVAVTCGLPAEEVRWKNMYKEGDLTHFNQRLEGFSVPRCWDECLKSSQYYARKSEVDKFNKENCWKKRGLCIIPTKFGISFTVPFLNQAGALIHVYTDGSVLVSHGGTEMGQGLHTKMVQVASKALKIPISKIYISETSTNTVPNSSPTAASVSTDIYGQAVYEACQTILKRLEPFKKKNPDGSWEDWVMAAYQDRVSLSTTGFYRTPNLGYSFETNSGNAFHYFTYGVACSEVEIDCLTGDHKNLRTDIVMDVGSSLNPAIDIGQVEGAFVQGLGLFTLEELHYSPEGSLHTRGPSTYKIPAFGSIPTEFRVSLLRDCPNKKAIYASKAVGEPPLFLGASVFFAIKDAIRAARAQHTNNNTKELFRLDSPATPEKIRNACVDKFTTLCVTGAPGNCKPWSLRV

IC50 [nM]	SMILES
2710	Clc1nc(NN=Cc2ccccc2)c2nc[nH]c2n1 [Compound 3b, 6-benzylidenehydrazino-2-chloro-9H-purine]
1960	Fc1ccc(C=NNc2nc(Cl)nc3[nH]cnc23)cc1 [Compound 3c, 2-chloro-6-p-fluorobenzylidenehydrazino-9H-purine]
927	Clc1ccc(C=NNc2nc(Cl)nc3[nH]cnc23)cc1 [Compound 3d, 2-chloro-6-p-chlorobenzylidenehydrazino-9H-purine]
801	COc1ccc(C=NNc2nc(Cl)nc3[nH]cnc23)cc1 [Compound 3e, 2-chloro-6-p-methoxybenzylidenehydrazino-9H-purine]
2320	CN(C)c1ccc(C=NNc2nc(Cl)nc3[nH]cnc23)cc1 [Compound 3f, 2-chloro-6-p-N,N-dimethylaminobenzylidenehydrazino-9H-purine]
1150	Clc1nc(NN=Cc2ccc3c(c2)OCO3)c2nc[nH]c2n1 [Compound 3g, 2-chloro-6-(3,4-methylenedioxybenzylidenehydrazino)-9H-purine]
764	Oc1ccc(C=NNc2nc(Cl)nc3[nH]cnc23)cc1 [Compound 3i, 2-chloro-6-p-hydroxybenzylidenehydrazino-9H-purine]
7910	Cc1nnc2c3nc[nH]c3[nH]c(=S)n12 [Compound 5b, 3-methyl-7H-[1,2,4]triazolo[3,4-i]purine-5(6H)-thione]
2950	S=c1[nH]c2[nH]cnc2c2nnc(-c3ccccc3)n12 [Compound 5c, 3-phenyl-7H-[1,2,4]triazolo[3,4-i]purine-5(6H)-thione]
3020	COc1ccc(-c2nnc3c4nc[nH]c4[nH]c(=S)n23)cc1 [Compound 5d, 3-p-methoxyphenyl-7H-[1,2,4]triazolo[3,4-i]purine-5(6H)-thione]
2570	O=c1[nH]c2[nH]cnc2c2nnc(-c3ccccc3)n12 [Compound 11c, 3-phenyl-7H-[1,2,4]triazolo[3,4-i]purine-5(6H)-one]
156	O=c1[nH]c2[nH]cnc2c2nnc(-c3ccc(Cl)cc3)n12 [Compound 11e, 3-p-chlorophenyl-7H-[1,2,4]triazolo[3,4-i]purine-5(6H)-one]
336	Fc1ccc(C=NNc2nc(=S)[nH]c3[nH]cnc23)cc1 [Compound 17a, 6-p-fluorobenzylidenehydrazino-9H-purine-2(3H)-thione]
865	CN(C)c1ccc(C=NNc2nc(=S)[nH]c3[nH]cnc23)cc1 [Compound 17b, 6-p-N,N-dimethylaminobenzylidenehydrazino-9H-purine-2(3H)-thione]
1180	O=[N+]([O-])c1ccc(C=NNc2nc(=S)[nH]c3[nH]cnc23)cc1 [Compound 17c, 6-p-nitrobenzylidenehydrazino-9H-purine-2(3H)-thione]
969	COc1ccc(C=NNc2nc(=S)[nH]c3[nH]cnc23)cc1 [Compound 17d, 6-p-methoxybenzylidenehydrazino-9H-purine-2(3H)-thione]
235	S=c1nc(NN=Cc2ccc3c(c2)OCO3)c2nc[nH]c2[nH]1 [Compound 17e, 6-(3,4-methylenedioxybenzylidenehydrazino)-9H-purine-2(3H)-thione]
681	COc1ccc(C=NN(C)c2nc(=S)[nH]c3[nH]cnc23)cc1 [Compound 19a, 6-[2-(4-methoxybenzylidene)-1-methylhydrazino]-9H-purine-2(3H)-thione]
667	CN(N=Cc1ccc(F)cc1)c1nc(=S)[nH]c2[nH]cnc12 [Compound 19b, 6-[2-(4-fluorobenzylidene)-1-methylhydrazino]-9H-purine-2(3H)-thione]

Reference: patent publication US5990118A, “Purine compounds and xanthine oxidase inhibitors” (Yamasa Corporation, priority 1995, dated 1999)
